Assay results taken from US20090297566A1, “Oxygen-impervious packaging with optional oxygen scavenger, stabilized thyroid hormone compositions and methods for storing thyroid hormone pharmaceutical compositions” (priority 2004, published 2009).

Columns and labels:
[1] = Water content of levothyroxine sodium raw material during forced degradation at 60°C; assay type: physicochemical; details: for % H2O: raw material
Procedure: (§1) This study investigated the effects of humidity and oxygen on the storage of levothyroxine sodium raw material under forced degradation conditions (60° C.).
(§2) High temperature and humidity was known to contribute to potency loss of levothyroxine sodium. Thus, a desiccant was added to the packaging create a low moisture environment to test the effect of reduced humidity upon the shelf life of the product. This study also used a FreshPax Pharma O2 Absorbing Packet as an oxygen scavenger. This oxygen scavenger reduced the level of oxygen in the package to less than 1%. All samples were packaged in 40 cc HDPE bottles.
(§3) • 1. 60 g of levothyroxine sodium raw material was selected. • 2. The levothyroxine was assayed in duplicate to establish the initial potency under laboratory conditions. • 4. The samples were preparation under laboratory conditions. • 5. 3 g was distributed to each of eighteen 40 cc bottles. • 6. 1 g desiccant was added to each of six bottles. • 7. A single FreshPax Pharma O2 Absorbing Packet was added to each of six bottles. • 8. The remaining six bottles were packaged without desiccant or a packet of FreshPax Pharma O2. • 9. The bottles were capped and sealed using a Compak Jr Sealer and appropriate CRC caps. • 10. All bottles were placed in a 60° C. oven. • 11. The samples were tested for potency, as described in Example 2 and water content at 1-week intervals for three weeks, with a previously unopened sample bottle being tested at each interval. Potency analysis was conducted in duplicate weighings from each bottle correcting for actual water content.

[2] = Effects of desiccation and oxygen on levothyroxine sodium raw material, forced degradation at 60°C, potency; assay type: physicochemical; details: for % Potency: raw material
Procedure: as §1, §2, §3

[3] = raw material with FreshPax Pharma O2 packet, 60°C, three weeks
[4] = 3 g in 40 cc HDPE bottle, Initial
[5] = B: FreshPax Pharma O2 packet, 60°C, 1 wk
[6] = B: FreshPax Pharma O2 packet, 60°C, 2 wk
[7] = B: FreshPax Pharma O2 packet, 60°C, 3 wk

SMILES: N[C@@H](Cc1cc(I)c(Oc2cc(I)c(O)c(I)c2)c(I)c1)C(=O)[O-].[Na+] [Levothyroxine Sodium, 3,3′,5,5′-tetraiodo-L-thyronine sodium salt]
- loss of water content ([1]; raw material with 1 g silica gel desiccant, 60°C, within the first week): over 1%
- water content deviation from original water content [1, 3]: ≤ 1%
- % H2O [1, 4]: 9.9%
- % H2O ([1]; A: 1 g silica gel, 60°C, 1 wk): 8.5%
- % H2O ([1]; A: 1 g silica gel, 60°C, 2 wk): 8.7%
- % H2O ([1]; A: 1 g silica gel, 60°C, 3 wk): 8.8%
- % H2O [1, 5]: 9.1%
- % H2O [1, 6]: 9.6%
- % H2O [1, 7]: 9.6%
- % H2O ([1]; C: API alone, 60°C, 1 wk): 9.4%
- % H2O ([1]; C: API alone, 60°C, 2 wk): 8.9%
- % H2O ([1]; C: API alone, 60°C, 3 wk): 8.8%
- stability ([2]; raw material packaged with FreshPax Pharma O2 packet, 60°C, three weeks): stable
- potency loss ([2]; raw material with 1 g silica gel desiccant, 60°C, three-week study): 2.8%
- potency loss [2, 3]: 0.4%
- % Potency [2, 4]: 99.2%
- % Potency ([2]; A: 1 g silica gel, 60°C, 1 wk): 97.6%
- % Potency ([2]; A: 1 g silica gel, 60°C, 2 wk): 97.2%
- % Potency ([2]; A: 1 g silica gel, 60°C, 3 wk): 96.4%
- % Potency [2, 5]: 99.8%
- % Potency [2, 6]: 99.5%
- % Potency [2, 7]: 98.8%
- % Potency ([2]; C: API alone, 60°C, 1 wk): 99.6%
- % Potency ([2]; C: API alone, 60°C, 2 wk): 98%
- % Potency ([2]; C: API alone, 60°C, 3 wk): 97.3%
